Patent publication US20180099931A1 (AbbVie S.à.r.l., priority 2016, published 2018)
Like-named read-outs stand apart in the source and are kept apart here.

Molecular target: T1, F508delCFTR (Homo sapiens, UniProt P13569, DEL508-508)
T1 construct: expressed in transfected cells; host or cells: CFBE41o- human lung-derived epithelial cells (CFBE4lo-F508delCFTR-HRP), doxycycline-inducible
Test: Cell Surface Expression-Horse Radish Peroxidase (CSE-HRP) Assay;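 for Maximum % activity (with co-corrector): co-corrector and positive control are both the same reference corrector at 2 µM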;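 for Maximum % activity (without co-corrector): percent of the 2 µM on-plate positive control corrector response above DMSO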
Type: cell-based
Conditions: for Maximum % activity (with co-corrector) / Emax: maximum at any tested concentration, normalized to on-plate positive control; for Emax: read-out: Maximum % activity (without co-corrector)

[1] = test compound without co-corrector, read-out: EC50 (without co-corrector)
[2] = with co-corrector (2 μM of 3-[(2R,4R)-4-({[1-(2,2-difluoro-1,3-benzodioxol-5-yl)cyclopropyl]carbonyl}amino)-7-methoxy-3,4-dihydro-2H-chromen-2-yl]benzoic acid), read-out: EC50 (with co-corrector)
[3] = test compound without co-corrector
[4] = with co-corrector (2 μM of 3-[(2R,4R)-4-({[1-(2,2-difluoro-1,3-benzodioxol-5-yl)cyclopropyl]carbonyl}amino)-7-methoxy-3,4-dihydro-2H-chromen-2-yl]benzoic acid)

T1 sequence (P13569 with tags, fused parts or gaps DEL508-508): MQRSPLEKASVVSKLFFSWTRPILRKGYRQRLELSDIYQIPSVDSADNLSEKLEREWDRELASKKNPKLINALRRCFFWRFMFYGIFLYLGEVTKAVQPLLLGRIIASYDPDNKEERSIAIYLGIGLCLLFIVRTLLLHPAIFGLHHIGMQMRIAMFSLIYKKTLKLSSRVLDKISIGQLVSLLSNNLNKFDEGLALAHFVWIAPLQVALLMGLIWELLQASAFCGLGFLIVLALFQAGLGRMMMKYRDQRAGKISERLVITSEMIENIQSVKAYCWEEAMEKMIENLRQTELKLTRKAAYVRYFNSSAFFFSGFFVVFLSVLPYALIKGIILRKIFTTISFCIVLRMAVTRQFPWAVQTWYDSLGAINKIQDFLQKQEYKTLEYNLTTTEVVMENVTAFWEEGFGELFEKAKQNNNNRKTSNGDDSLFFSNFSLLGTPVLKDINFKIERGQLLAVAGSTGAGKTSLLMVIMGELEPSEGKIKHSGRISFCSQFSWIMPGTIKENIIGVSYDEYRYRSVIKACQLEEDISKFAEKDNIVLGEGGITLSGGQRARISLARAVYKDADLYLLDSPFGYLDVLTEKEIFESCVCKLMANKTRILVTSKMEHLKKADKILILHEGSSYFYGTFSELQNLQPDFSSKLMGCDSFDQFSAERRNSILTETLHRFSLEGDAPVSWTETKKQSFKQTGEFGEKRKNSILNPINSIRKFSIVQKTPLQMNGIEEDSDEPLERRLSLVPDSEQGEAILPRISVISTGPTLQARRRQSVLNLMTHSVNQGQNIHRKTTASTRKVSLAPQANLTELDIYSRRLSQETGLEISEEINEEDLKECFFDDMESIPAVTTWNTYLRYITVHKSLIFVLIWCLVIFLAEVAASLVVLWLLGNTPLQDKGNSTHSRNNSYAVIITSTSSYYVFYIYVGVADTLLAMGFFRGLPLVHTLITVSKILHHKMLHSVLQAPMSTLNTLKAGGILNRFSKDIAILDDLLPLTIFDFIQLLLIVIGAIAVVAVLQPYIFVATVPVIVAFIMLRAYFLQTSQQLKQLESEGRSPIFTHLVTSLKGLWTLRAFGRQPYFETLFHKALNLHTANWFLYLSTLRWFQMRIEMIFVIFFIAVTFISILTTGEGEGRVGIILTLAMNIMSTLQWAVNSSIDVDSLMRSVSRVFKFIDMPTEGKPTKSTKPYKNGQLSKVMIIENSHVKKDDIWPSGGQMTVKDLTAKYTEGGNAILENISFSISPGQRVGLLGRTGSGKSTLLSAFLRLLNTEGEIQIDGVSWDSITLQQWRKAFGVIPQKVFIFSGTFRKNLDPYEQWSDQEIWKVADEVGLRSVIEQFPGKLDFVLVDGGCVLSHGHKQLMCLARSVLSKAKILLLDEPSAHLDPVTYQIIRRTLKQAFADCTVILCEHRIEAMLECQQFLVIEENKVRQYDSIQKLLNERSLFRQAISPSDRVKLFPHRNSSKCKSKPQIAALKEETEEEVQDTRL

| EC50 [1] | EC50 [2] | Maximum % activity (with co-corrector) (with co-corrector (2 μM)) | Emax (without co-corrector) | EC50 (CSE-HRP, test compound without co-corrector, read-out: EC50 (without co-corrector)) | EC50 (CSE-HRP, with co-corrector (2 μM of 3-[(2R,4R)-4-({[1-(2,2-difluoro-1,3-benzodioxol-5-yl)cyclopropyl]carbonyl}amino)-7-methoxy-3,4-dihydro-2H-chromen-2-yl]benzoic acid), read-out: EC50 (with co-corrector)) | Maximum % activity (with co-corrector) (CSE-HRP, with co-corrector (2 μM)) | Emax (CSE-HRP, without co-corrector) | Emax [3] | Maximum % activity (with co-corrector) [4] | SMILES |
| --- | --- | --- | --- | --- | --- | --- | --- | --- | --- | --- |
| 1 to 10 µM | 1 to 10 µM | +++ (≥350) | < 100% |  |  |  |  |  |  | COc1ccc(C(C)(C)C)cc1N[C@H]1[C@H](C(C)(C)C)[C@@H](C(=O)O)N(C(=O)C2CCCCC2)[C@H]1c1ccccc1 [Example I-82] |
| 1 to 10 µM | 1 to 10 µM | +++ (≥350) | 100 to 200% |  |  |  |  |  |  | COc1ccc(C(C)(C)C)cc1CN[C@H]1[C@H](C(C)(C)C)[C@@H](C(=O)O)N(C(=O)c2cc3occc3n2C)[C@H]1c1ccccc1 [Example I-102] |
|  |  |  |  | 1 to 10 µM | 1 to 10 µM | +++ (≥350) | > 200% |  |  | COc1ccc(C(C)(C)C)cc1CN[C@H]1[C@H](C(C)(C)C)[C@@H](C(=O)O)N(C(=O)OCC(C)C)[C@H]1c1ccccc1 [II-264] |
| > 10 µM | 1 to 10 µM |  |  |  |  |  |  | < 100% | + (<150) | COc1cccc([C@@H]2[C@H](NCc3ccccc3OC(F)F)[C@@H](C(C)(C)C)[C@H](C(=O)O)N2C(=O)N(C(C)C)C(C)C)n1 (racemic) [III-59] |
| 1 to 10 µM | 1 to 10 µM |  |  |  |  |  |  | < 100% | ++ (≥150 and <350) | COc1ccc(OC)c(CN[C@@H]2[C@@H](C(C)(C)C)[C@H](C(=O)O)N(C(=O)C3CCCCC3)[C@@H]2c2ccccc2)c1 (racemic) [III-11] |
| 1 to 10 µM | 1 to 10 µM | +++ (≥350) | 100 to 200% |  |  |  |  |  |  | COc1ccc(Br)nc1CN[C@H]1[C@H](C(C)(C)C)[C@@H](C(=O)O)N(C(=O)C2CCCCC2)[C@H]1c1ccccc1 [Example I-134] |
| 1 to 10 µM | 1 to 10 µM | +++ (≥350) | > 200% |  |  |  |  |  |  | COc1ccc(C(C)(C)C)cc1CN[C@H]1[C@H](C(C)(C)C)[C@@H](C(=O)O)N(C(=O)C2CC3CCC(C2)O3)[C@H]1c1ccccc1 (stereo partly shown) [Example I-172] |
| < 1 µM | < 1 µM | +++ (≥350) | 100 to 200% |  |  |  |  |  |  | COc1ncc(C(F)(F)F)cc1CN[C@H]1[C@H](C(C)(C)C)[C@@H](C(=O)O)N(C(=O)C2CCCCC2)[C@H]1c1ccc(F)cc1 [Example 26, (2S,3S,4S,5S)-3-tert-butyl-1-(cyclohexanecarbonyl)-5-(4-fluorophenyl)-4-({[2-methoxy-5-(trifluoromethyl)pyridin-3-yl]methyl}amino)pyrrolidine-2-carboxylic acid] |
| 1 to 10 µM | 1 to 10 µM | +++ (≥350) | 100 to 200% |  |  |  |  |  |  | COc1cccc([C@@H]2[C@H](NCc3cc(C(F)(F)F)ccc3OC)[C@@H](C(C)(C)C)[C@H](C(=O)O)N2C(=O)C2CCCCC2)n1 (racemic) [Example I-19] |
| 1 to 10 µM | < 1 µM |  |  |  |  |  |  | > 200% | +++ (≥350) | COc1ccc(C(C)(C)C)cc1CN[C@H]1[C@H](C(C)(C)C)[C@@H](C(=O)O)N(C(=O)[C@@H]2C[C@H]2c2ccccc2)[C@H]1c1ccccc1 (relative stereo) [II-339] |
| > 10 µM | 1 to 10 µM |  |  |  |  |  |  | < 100% | ++ (≥150 and <350) | COc1ccc(Cl)cc1CN[C@@H]1[C@@H](C)[C@H](C(=O)O)N(C(=O)N(C(C)C)C(C)C)[C@@H]1c1ccccc1 (racemic) [III-37] |
| 1 to 10 µM | 1 to 10 µM | +++ (≥350) | > 200% |  |  |  |  |  |  | COc1nc(C(C)(C)C)ccc1CN[C@H]1[C@H](C(C)(C)C)[C@@H](C(=O)O)N(C(=O)C2CCCC(OC)C2)[C@H]1c1ccccc1 (stereo partly shown) [Example I-197] |
| > 10 µM | 1 to 10 µM | ++ (≥150 and <350) |  |  |  |  |  | < 100% |  | COc1ccc(C(F)(F)F)cc1CN[C@H]1[C@H](C(C)(C)C)[C@@H](C(=O)O)N(C(=O)C2CCCCC2)[C@H]1c1ncccc1Cl [III-164] |
